Results from patent publication US11167006B2 (Shanghai Tianci Life Science Development Co., Ltd., priority 2016, dated 2021).
Square brackets hold non-standard residues; d marks the D form. Peptide text beside a SMILES is read from it. NMeF = CN[C@@H](Cc1ccccc1)C(=O)O

Columns and labels:
[1] = tested on: gastrointestinal movement of male mice of Kunming strain; assay: Gastrointestinal movement in vivo (activated carbon suspension); set-up: species or system mouse
Method: Male mice of Kunming strain, weighing 26±2 g. The commonly used toner detection method was used in the detection of astrointestinal movement in vivo. The specific experimental procedure was: before the gastrointestinal movement experiment, the mice were fasted for 16 hours (free drinking during fasting), then the drug was injected through spinal cord or subcutaneously, and after 15 minutes, the activated carbon suspension prepared in advance (a physiological saline suspension containing 5% of activated carbon and 10% gum arabic) was orally perfused into the stomach in a volume of 0.1 ml per 10 g of body weight. After 30 minutes from the perfusion of activated carbon suspension, the animals were sacrificed by cervical dislocation, and then the small intestine of the animal from the pylorus to the cecum was carefully taken out. The total lengths of the small intestine from the pylorus to the cecum and the furthest distance from which the activated carbon suspension moves were measured.
Gastrointestinal movement test results were evaluated by a percentage of gastrointestinal movement, and the percentage of gastrointestinal movement per mouse was calculated by dividing the moving distance of the activated carbon suspension by the total length of the small intestine. The relevant data were expressed as mean of the percentage of gastrointestinal movement±standard error (Means±S.E.M.), the data for differences between groups treated with different drug concentrations were analyzed by one-way ANOVA (Dunnett test in one-way ANOVA) for statistics and analysis, ***P<0.001 represented that there was a significant difference between the percentage of gastrointestinal movement of the drug-treated group and that of the saline group.

[2] = tested on: inflammatory pain in mice; assay: Inflammatory pain model (Carrageenan or CFA); type: in vivo, mouse
Method: Inflammatory pain in mice was measured using a hot stinging apparatus and an electronic Von Frey tenderness instrument, and the basal pain threshold of normal mice was firstly determined. Then 20 μl of 2% Carrageenan solution or CFA solution was injected subcutaneously into the mouse paw. The thermal and mechanical pain sensitivity value values of the injected paw in mice were tested after 24 hours (Carrageenan) or 4 days (CFA), and then compound 9 was administered into lateral ventricle, intrathecally or subcutaneously, and the pain threshold at different time points after administration were recorded.
(§1) The experimental data were expressed as mean±standard error (Means±S.E.M.), and the data for differences between groups treated with different drug concentrations were analyzed by one-way ANOVA (Bonferroni test in one-way ANOVA) for statistics and analysis, ***P<0.001 represents that there was a significant difference between the pain threshold value of the drug-treated group and that of the saline group.

[3] = tested on: CCI-induced neuralgia in mouse; assay: Analgesic tolerance and cross-tolerance in CCI-induced neuralgia; type: in vivo
Method: CCI-induced neuralgia in mouse was detected using a PL-200 thermal tingling instrument and an electronic Von Frey tenderness instrument. The thermal pain threshold of one group of normal mice and the mechanical pain threshold of another group of normal mice were first determined. The mice were then anesthetized with sodium pentobarbital 80 mg/kg mouse body weight) and the mice were fixed in the prone position. The right sciatic nerve was exposed and 3 mild ligation rings were made around the sciatic nerve using a 4-0 chromic catgut, 1 mm intervals. The ligation intensity is preferably a slight tremor in the right hind leg. On the 10th day after surgery, the thermal pain sensitivity value and mechanical pain sensitivity value of the right hind paw of the two groups of mice were determined. Compound 9 or morphine was then administered subcutaneously for seven consecutive days, and compound 9 was given to mice in the morphine group on day 8. The thermal tingling and mechanical pain thresholds at different time points after administration were recorded.
The experimental data were expressed as mean±standard error (Means±S.E.M.). Data for differences between groups treated with the same drug were analyzed by one-way ANOVA (Tukey HSD test of one-way ANOVA) for statistics and analysis, *P<0.05. **P<0.01, ***P<0.001 indicates a significant difference between the pain threshold of the drug-treated group and the pain threshold after the First day of administration.

[4] = tested on: postoperative pain in mice; assay: Postoperative pain model (electronic Von Frey); type: in vivo, mouse; details: mechanical pain threshold
Description: The postoperative pain in mice was detected mainly by an electronic Von Frey tenderness instrument. The basic pain threshold of normal mice was first determined, and then the mice were anesthetized with isoflurane. With the back facing up, the right hind paw of the mouse was fixed and disinfected with iodine solution. A 5 mm longitudinal incision was made with a No. 11 blade at 2 mm from the ankle to expose the plantaris, blood vessels and fascia, and the wound was sutured using a 4-0 surgical suture and a small suture needle, and the wound is coated with erythromycin ointment. The mechanical pain sensitivity value of the surgical foot of the mice was measured 6 h after the surgery, and then compound 9 was intrathecally or intraperitoneally given, and the mechanical pain threshold at different time points after administration were recorded.
as §1, with “MPE” for “pain threshold”
First, the maximum analgesic effect (MPE) was calculated, MPF. […]

[5] = tested on: formalin-induced pain mice; assay: Formalin pain test; type: in vivo, mouse
Method: The mice were placed in a transparent organic glass box (20×20×30 cm) to accommodate the environment for 10-15 min; a mirror tilted at 30 degrees was placed underneath to facilitate observation of the mouse's foot reaction. After adaptation, the mice were administered in lateral ventricle, intrathecally or intraperitoneally. 5 minutes after administration, 20 μL of a 5% formalin solution was subcutaneously injected into the toes of the right hind paw of the mice, and quickly placed back in the observation box. Timing was started, and the time when the mouse was licking, biting and shaking the injected paw during 0-5 minutes and 15-30 minutes after the injection of the formalin solution were recorded respectively.
as §1, with “experimental data was expressed by MPE (maximum possible effect), MPE (%)=100×[(licking paw time in saline group−licking paw time in drug group)/licking paw time in saline group]. The relevant MPE” for “experimental”, “Means±S.E.M.),” for “(Means±S.E.M.), and”, “MPE” for “pain threshold”

[6] = subcutaneous, seven consecutive days
[7] = lateral ventricle (i.c.v.), listed as compound 9
[8] = lateral ventricle, from ED50 values

## C[C@@H](NC(=O)[C@@H](N)Cc1ccc(O)cc1)C(=O)NCC(=O)N(C)[C@@H](Cc1ccccc1)C(=O)NCC(=O)N1CCC[C@H]1C(=O)N[C@@H](CCC(N)=O)C(=O)N[C@@H](CCCNC(=N)N)C(=O)N[C@@H](Cc1ccccc1)C(N)=O [Compound 9, Tyr-D-Ala-Gly-NMe-Phe-Gly-Pro-Gln-Arg-Phe-NH2] (H-Y[dA]G[NMeF]GPQRF-NH2)
[1]; 10 mg/kg (compound 9 subcutaneous; morphine positive control)
  percentage of gastrointestinal movement: 37.10%
[1]; intrathecal injection
  dose with significant inhibitory effect on gastrointestinal movement: ≥ 300 pmol
[1]; intrathecal injection, 100 pmol
  percentage of gastrointestinal movement: 45.71%
[1]; intrathecal injection, 300 pmol
  percentage of gastrointestinal movement: 31.40%
[1]; intrathecal injection, 500 pmol
  percentage of gastrointestinal movement: 21.67%
[1]; subcutaneous, 1 mg/kg
  percentage of gastrointestinal movement: 47.28%
[1]; subcutaneous, 30 mg/kg
  percentage of gastrointestinal movement: 33.12%
[1]; subcutaneous, 100 mg/kg
  percentage of gastrointestinal movement: 24.14%
[2]; intrathecal (FIG. 15: carrageenan-induced)
  analgesic ED50 value, inflammatory pain: 2.98 (2.50-3.54) pmol
[2]; lateral ventricle (FIG. 14: CFA-induced)
  analgesic ED50 value, inflammatory pain: 5.20 (2.06-13.10) pmol
[2]; subcutaneous (FIG. 16: carrageenan-induced)
  analgesic ED50 value, inflammatory pain: 3.24 (2.81-3.74) mg/kg
[3]; morphine-tolerant mice given compound 9 s.c. on day 8
  cross-tolerance between compound 9 and morphine: no cross-tolerance
[3]; [6]
  analgesic tolerance on continuous injection, mechanical pain sensitivity: not significantly different from that obtained in the first day
  analgesic tolerance on continuous injection, thermal sensitivity pain: not significantly different from that obtained in the first day
[4]; intraperitoneal
  ED50 value of analgesia for postoperative pain: 26.15 (22.62-30.23) mg/kg
[4]; intrathecal
  ED50 value of analgesia for postoperative pain: 8.63 (6.70-11.11) pmol
[5]; intraperitoneal (i.p.)
  ED50 value (95% confidence interval) first phase pain: 8.855 (7.573 to 10.35) mg/kg
  ED50 value (95% confidence interval) second phase pain: 10.92 (9.632 to 12.39) mg/kg
[5]; intrathecal (i.t.)
  ED50 value (95% confidence interval) first phase pain: 37.69 (35.53 to 39.99) pmol
  ED50 value (95% confidence interval) second phase pain: 55.04 (51.26 to 59.10) pmol
[5]; lateral ventricle (i.c.v.)
  ED50 value (95% confidence interval) first phase pain: 18.8 pmol
  ED50 value (95% confidence interval) second phase pain: 103.4 pmol
[5]; [7]
  ED50 value (95% confidence interval) first phase pain: 18.80 (15.97 to 22.12) pmol
  ED50 value (95% confidence interval) second phase pain: 103.4 (96.02 to 111.3) pmol
[5]; [8]
  analgesic effect relative to BN-9, first phase pain: 6.3 times
  analgesic effect relative to BN-9, second phase pain: 11.0 times
